According to ChEMBL document CHEMBL1201862, “PubChem BioAssay data set” (2004):
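1) Cells in 96-well plates. 2) Compound, 48 h, 5 concentrations. 3) Linear interpolation between surrounding doses. 4) Unreached endpoint = highest concentration. GI50 marks 50% less growth.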 The source made the active and inactive calls. No stated cut-off is given here; in the data, active = GI50 up to about 1.1 µM and inactive = higher.

Experiments:
Experiment in all cases: NCI-60 cell line screen, 48 h
[1] = test system: COLO 205
[2] = test system: MDA-N
[3] = test system: U-251
[4] = test system: RPMI-8226
[5] = test system: NCI/ADR-RES
[6] = test system: UACC-257
[7] = test system: KM12
[8] = test system: MDA-MB-435
[9] = test system: NCI-H23
[10] = test system: SK-MEL-2
[11] = test system: Malme-3M
[12] = test system: UO-31
[13] = test system: HOP-62
[14] = test system: SF-539
[15] = test system: A498
[16] = test system: SW-620
[17] = test system: NCI-H522
[18] = test system: T47D
[19] = test system: SK-OV-3

Measured: GI50

O=S1(=O)OCCOS(=O)(=O)C1Cc1nc2ccccc2[nH]1
inactive: [1] 83.2 µM | [2] 22.3 µM | [3] 38.6 µM | [4] 34.3 µM | [5] 30.3 µM | [6] 29.2 µM | [7] 68.2 µM | [8] 51.2 µM | [9] 41 µM | [10] 72.3 µM | [11] > 100 µM | [12] 75.7 µM | [13] 26.8 µM

C/N=C1\CC2c3cc(OC)c(OC)cc3CCN2C2=C1C(=O)CC(C)(C)C2 (stereo not given)
inactive: [1] > 100 µM | [3] > 100 µM | [14] > 100 µM | [15] > 100 µM | [16] > 100 µM | [6] > 100 µM | [7] > 100 µM | [17] > 100 µM | [9] > 100 µM | [10] > 100 µM | [11] > 100 µM | [12] > 100 µM

O=C(CC(=O)n1nc(-c2ccccc2)c(/N=N/c2ccccc2C(=O)O)c1-c1ccccc1)Nc1ccc(Cl)cc1
inactive: [1] 50.7 µM | [2] 36.1 µM | [3] 19.2 µM | [18] 9.77 µM | [4] 20.4 µM | [16] 63.8 µM | [6] 32 µM | [7] > 100 µM | [9] 20.5 µM | [10] 29.5 µM | [11] 75 µM | [12] 15.5 µM | [13] 19.6 µM

N#Cc1c(-c2ccc(Cl)cc2)c(C#N)c(=O)n(NS(=O)(=O)c2ccccc2)c1S
inactive: [1] 30.5 µM | [2] 25.9 µM | [3] 23.1 µM | [14] 18.3 µM | [4] 23.9 µM | [15] 27.7 µM | [19] 87.5 µM | [16] 26.2 µM | [5] 21.2 µM | [6] 46.7 µM | [17] 18.2 µM | [8] 23.5 µM | [9] 39.3 µM | [10] 47.3 µM | [11] 25.9 µM | [12] 16.2 µM

C=CCNC(=S)N1CC(C)C(=O)Nc2cc(Cl)ccc21 (stereo not given)
inactive: [1] > 100 µM | [3] > 100 µM | [14] 76 µM | [4] > 100 µM | [15] > 100 µM | [19] > 100 µM | [6] > 100 µM | [7] > 100 µM | [17] > 100 µM | [9] > 100 µM | [10] > 100 µM | [11] 82 µM | [12] > 100 µM | [13] > 100 µM

COC(=O)[C@@H]1O[C@]12C(CO[Si](C)(C)C(C)(C)C)OC(n1ccc(=O)[nH]c1=O)C2O[Si](C)(C)C(C)(C)C (stereo not given in full)
inactive: [1] 24.1 µM | [2] 33.1 µM | [3] 26.2 µM | [14] 19.7 µM | [4] 8.85 µM | [15] > 10 µM | [19] 50.8 µM | [16] 26.1 µM | [5] 30.8 µM | [6] 22.1 µM | [7] 31.7 µM | [17] 19.7 µM | [8] 23.6 µM | [9] 19.8 µM | [10] 17.4 µM | [12] 18.9 µM | [13] 24 µM

CC(=O)Nc1ccc(NCC(=O)Nn2cnc3ccc(S(=O)(=O)Nc4ccc(NC(C)=O)cc4)cc3c2=O)cc1
inactive: [1] > 100 µM | [2] > 100 µM | [3] > 100 µM | [14] > 100 µM | [4] > 100 µM | [19] > 100 µM | [16] > 100 µM | [5] > 100 µM | [6] > 100 µM | [7] > 100 µM | [17] > 100 µM | [8] > 100 µM | [9] > 100 µM | [10] > 100 µM | [11] > 100 µM | [12] > 100 µM | [13] > 100 µM

COc1ccc(C(=O)c2sc(Nc3ccccc3)nc2N)cc1
inactive: [3] 12.7 µM | [18] > 100 µM | [14] 14.3 µM | [4] 3.72 µM | [15] > 100 µM | [19] 26.9 µM | [16] 2.69 µM | [5] > 100 µM | [6] > 100 µM | [17] 6.82 µM | [8] 1.36 µM | [9] > 100 µM | [10] 4.88 µM | [11] > 100 µM | [12] 55.8 µM | [13] 21 µM

NN/C(Cc1ccccc1)=N\NO
inactive: [1] > 100 µM | [14] > 100 µM | [15] > 100 µM | [16] > 100 µM | [6] > 100 µM | [7] 17.4 µM | [9] 57.4 µM | [10] > 100 µM | [11] > 100 µM

Cc1ccc(C(=O)/C=C(O)/C(O)=C/C(=O)c2ccc(C)cc2C)c(C)c1
inactive: [1] 1.82 µM | [3] 1.75 µM | [18] 2.05 µM | [14] 1.85 µM | [4] 2.01 µM | [15] 2.04 µM | [19] 1.94 µM | [16] 2.37 µM | [5] 1.92 µM | [6] 1.71 µM | [7] 1.88 µM | [17] 1.64 µM | [8] 2.01 µM | [9] 1.65 µM | [10] 1.87 µM | [11] 1.86 µM | [12] 1.36 µM | [13] 1.58 µM

O=C(CC1(O)C(=O)Nc2ccccc21)c1ccc(Cl)c(Cl)c1 (stereo not given)
inactive: [1] > 100 µM | [3] > 100 µM | [14] > 100 µM | [4] > 100 µM | [15] > 100 µM | [19] > 100 µM | [16] > 100 µM | [17] > 100 µM | [9] > 100 µM | [10] > 100 µM | [12] > 100 µM

Cc1ccc(Nc2ccc(Nc3ccc(C)cc3S(=O)(=O)O)c3c2C(=O)c2ccccc2C3=O)c(S(=O)(=O)O)c1
inactive: [1] > 100 µM | [3] > 100 µM | [14] > 100 µM | [4] > 100 µM | [15] > 100 µM | [19] > 100 µM | [16] > 100 µM | [6] > 100 µM | [7] > 100 µM | [17] > 100 µM | [10] > 100 µM | [11] > 100 µM | [12] > 100 µM | [13] > 100 µM

COc1ccc(C2N(c3ccc(C)c(N=C=O)c3)C(=O)N3C(c4ccc(OC)cc4)N(c4ccc(C)c(N=C=O)c4)C(=O)N23)cc1 (stereo not given)
inactive: [1] 62.4 µM | [2] > 100 µM | [3] > 100 µM | [14] > 100 µM | [4] > 100 µM | [15] 44 µM | [16] > 100 µM | [5] > 100 µM | [6] > 100 µM | [7] > 100 µM | [8] > 100 µM | [9] > 100 µM | [10] 49.7 µM | [11] 25.8 µM | [12] > 100 µM | [13] > 100 µM

Cc1ccc(-c2c(C#N)c(-c3ccc(C)cc3)n(NS(=O)(=O)c3ccccc3)c(=O)c2C#N)cc1
inactive: [1] 89.5 µM | [3] 49.9 µM | [14] 21.2 µM | [4] 14.7 µM | [15] 51.2 µM | [19] 53.8 µM | [16] 42.4 µM | [5] 50.5 µM | [6] 86.1 µM | [7] 56.5 µM | [17] 50.1 µM | [8] 61.1 µM | [10] 57.4 µM | [11] 86.5 µM | [13] 49.2 µM

CC(=O)Oc1ccc2c(C)cc(=O)oc2c1OC(C)=O
inactive: [1] 42.8 µM | [2] > 100 µM | [3] 35.2 µM | [14] > 100 µM | [4] 24.5 µM | [15] 37.7 µM | [19] > 100 µM | [16] 30.7 µM | [5] 24.2 µM | [6] 17.7 µM | [7] 44 µM | [8] 63.4 µM | [9] 26.9 µM | [10] > 100 µM | [11] 17.6 µM | [12] 26.5 µM | [13] 46.5 µM

CC1(C)CC(=O)c2c(oc3cc(O)c(O)cc23)C1
inactive: [1] 36.6 µM | [3] 33 µM | [14] 28.6 µM | [4] 17.5 µM | [15] 39 µM | [19] > 100 µM | [16] 19.1 µM | [6] 30.5 µM | [7] 23.9 µM | [17] 11.5 µM | [10] 26.7 µM | [11] 32.7 µM | [12] 37.7 µM | [13] 41.4 µM

CCCCn1c(C)c(C)c2c1NN=C(C#N)S2(=O)=O
inactive: [1] > 100 µM | [3] > 100 µM | [18] > 100 µM | [14] > 100 µM | [4] > 100 µM | [19] > 100 µM | [16] > 100 µM | [5] > 100 µM | [6] > 100 µM | [7] > 100 µM | [17] 64.7 µM | [8] > 100 µM | [9] > 100 µM | [10] > 100 µM | [11] > 100 µM | [12] > 100 µM | [13] > 100 µM

CCCCCCCC/C=C\CCCCCCCC(=O)OC[C@]1(CO)CCC(=O)O1
inactive: [1] > 100 µM | [3] > 100 µM | [18] > 100 µM | [15] > 100 µM | [19] > 100 µM | [16] > 100 µM | [5] > 100 µM | [6] > 100 µM | [7] > 100 µM | [17] > 100 µM | [8] > 100 µM | [9] > 100 µM | [10] > 100 µM | [11] > 100 µM | [12] > 100 µM | [13] > 100 µM
